Measured values taken from EP3187180A1, “ADENOSYLHOMOCYSTEINASE BINDING SUBSTANCES FOR MEDICAL USE” (Ludwig-Maximilians-Universität München, priority 2015, dated 2017).
Residue numbers refer to the chain shown, from its start. Read-outs that look alike come from different tables or passages of the source.

Assays:
[1] = biological target: T1, AHCY A89V (Homo sapiens, UniProt P23526, A89V); assay: Differential Scanning Fluorimetry (DSF), thermal unfolding; assay type: binding; conditions: for TM = Temperature at the midpoint of protein unfolding transition: No NAD^+: 50,29
T1 construct: made in house; host or cells: E. coli DH5a (with or without GroESL co-expression)
T1 sequence (P23526 1-432 A89V): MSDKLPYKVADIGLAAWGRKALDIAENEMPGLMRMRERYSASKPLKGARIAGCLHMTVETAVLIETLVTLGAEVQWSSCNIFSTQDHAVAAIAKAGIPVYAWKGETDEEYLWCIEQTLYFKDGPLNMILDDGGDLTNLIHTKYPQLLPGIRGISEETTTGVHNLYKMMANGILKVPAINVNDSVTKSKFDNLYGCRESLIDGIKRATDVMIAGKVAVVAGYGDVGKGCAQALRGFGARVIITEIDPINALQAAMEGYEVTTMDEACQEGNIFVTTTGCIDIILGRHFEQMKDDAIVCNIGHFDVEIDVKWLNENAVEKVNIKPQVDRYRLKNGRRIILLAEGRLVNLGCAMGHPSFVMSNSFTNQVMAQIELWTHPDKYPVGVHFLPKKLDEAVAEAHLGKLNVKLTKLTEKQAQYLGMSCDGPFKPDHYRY
Method: (§1) The potential of the binding of NAD^+ or an analogue of NAD^+ to the NAD^+ binding site and of the binding of an analogue of a substrate of AHCY to the substrate binding site of AHCY in stabilizing the enzyme and its activity was analyzed by use of Differential Scanning Fluorimetry (DSF). The following substrates were tested in the given concentrations:
(§2) The following five mutant proteins were selected for testing: • R49C, D86G, Y143C, A89V and Y379C.
(§3) Fluorescence measurements were carried out on a 7900 HT fast real-time PCR System (Applied Biosystems, Thermo Fisher Scientific Inc. USA). The data was recorded in Abi Prism SDS software. Samples contained AHCY-Maltose-Binding Protein fusion proteins, HEPES, and SYPRO Orange fluorescence dye (SYPRO® Orange Protein Gel Stain from Invitrogen, Thermo Fisher Scientific Inc. USA) in a 1:1000 dilution), which binds to exposed hydrophobic sites of unfolded proteins. For this dye, the wavelengths used for excitation and emission are 492 nm, respectively 610 nm. The assay was measured in quadruplicates on a 96-well PCR plate. Thermal denaturation was monitored by following the changes in SYPRO Orange fluorescence emission (excitation at 492 nm, emission at 610 nm). The measurement was performed in a 25 °C to 75 °C range, at a rate of 2 °C/min. Thermal denaturation curves were obtained by the plotting of fluorescence intensities against temperature and TM values as the midpoint of the protein-unfolding transition were calculated using the Boltzmann sigmoidal non-linear regression function in GraphPad Prism (GraphPad Prism 5.0, GraphPad Software Inc. USA). All measurements were corrected for background reduction of SYPRO Orange fluorescence. To analyze the stabilizing effect of different compounds different concentrations of NAD^+, NAD^+ analogues and substrate analogues were added to the samples. Significances between wild-type and mutated apoenzymes and holoenzymes with stabilizing agents were calculated by one-way analysis of variance followed by Dunnett's post test (GraphPad Prism 5.0, GraphPad Software Inc. USA).
(§4) DSF is an excellent means to monitor global thermal unfolding events by probing the accessibility of the fluorescent dye Sypro Orange to hydrophobic groups within a protein. DSF was used in order to assess whether mutated AHCY proteins can be stabilized by various compounds at increasing temperatures. The stabilizing effect was evaluated by comparison of the unfolding transition midpoints (fraction unfolded = 0.5) as an operative measure of protein stability and by graphical analysis of the thermal denaturation curves. The midpoint of thermal unfolding of wild-type AHCY was shifted by an average of 2.27 °C towards higher temperatures by NAD^+ and NAD^+ analogues.

[2] = biological target: T2, AHCY D86G (Homo sapiens, UniProt P23526, D86G); assay: as above; assay type: binding; conditions: for TM = Temperature at the midpoint of protein unfolding transition: No NAD^+: 49,55; for ΔTm at 100 µM: read-out: ΔTM (midpoint of thermal unfolding shifted by)
T2 construct: made in house; host or cells: E. coli DH5a (with or without GroESL co-expression)
T2 sequence (P23526 1-432 D86G): T1 sequence (P23526 1-432 A89V) with D86G, V89A
Method: as §1, §2, §3, §4

[3] = biological target: T3, wild-type AHCY (Homo sapiens, UniProt P23526); assay: as above; assay type: binding; conditions: for TM = Temperature at the midpoint of protein unfolding transition: Wt, No NAD^+: 51,98
T3 construct: made in house; host or cells: E. coli DH5a (with or without GroESL co-expression)
T3 sequence (P23526 whole entry): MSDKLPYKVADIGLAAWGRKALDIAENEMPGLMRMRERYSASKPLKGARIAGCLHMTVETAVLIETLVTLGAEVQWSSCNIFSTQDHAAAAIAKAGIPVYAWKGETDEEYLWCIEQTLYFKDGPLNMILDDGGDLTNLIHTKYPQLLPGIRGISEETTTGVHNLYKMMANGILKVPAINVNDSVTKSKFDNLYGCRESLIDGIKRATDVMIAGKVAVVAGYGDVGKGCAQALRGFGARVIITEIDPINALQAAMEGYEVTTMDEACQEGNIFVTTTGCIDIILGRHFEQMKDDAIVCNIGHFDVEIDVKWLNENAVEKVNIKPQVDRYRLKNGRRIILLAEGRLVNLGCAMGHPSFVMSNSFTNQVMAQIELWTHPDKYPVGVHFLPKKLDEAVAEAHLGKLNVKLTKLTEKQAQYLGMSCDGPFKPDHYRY
Method: as §1, §3, §4

[4] = biological target: T4, AHCY Y143C (Homo sapiens, UniProt P23526, Y143C); assay: as above; assay type: binding; conditions: No NAD^+: 49,34
T4 construct: made in house; host or cells: E. coli DH5a (with or without GroESL co-expression)
T4 sequence (P23526 1-432 Y143C): T1 sequence (P23526 1-432 A89V) with V89A, Y143C
Method: as §1, §2, §3, §4

[5] = biological target: T5, AHCY Y379C (Homo sapiens, UniProt P23526, Y379C); assay: as above; assay type: binding; conditions: No NAD^+: 50,01
T5 construct: made in house; host or cells: E. coli DH5a (with or without GroESL co-expression)
T5 sequence (P23526 1-432 Y379C): T1 sequence (P23526 1-432 A89V) with V89A, Y379C
Method: as §1, §2, §3, §4

[6] = biological target: T6, AHCY R49C (Homo sapiens, UniProt P23526, R49C); assay: as above; assay type: binding; conditions: for TM = Temperature at the midpoint of protein unfolding transition: No NAD^+: 49,84
T6 construct: made in house; host or cells: E. coli DH5a (with or without GroESL co-expression)
T6 sequence (P23526 1-432 R49C): T1 sequence (P23526 1-432 A89V) with R49C, V89A
Method: as §1, §2, §3, §4

[7] = test system: AHCY wild-type and mutated AHCY proteins; assay: Differential Scanning Fluorimetry (DSF), statements over the panel of proteins; assay type: binding, human; conditions: wild-type and/or mutated AHCY proteins, 1-100 µM or 5-100 µM

Question: With C=C1CCC[C@H]2[C@](C)(CC3=C(O)C(=O)C=C(OC)C3=O)[C@@H](C)CC[C@]12C [ilimaquinone] as the compound, how does the “shifting the midpoint of thermal unfolding by” value ([1]; concentration not given) read?
Answer: 8.9 °C

Question: For Nc1nccc2c1ncn2[C@@H]1C=C(CO)[C@@H](O)[C@H]1O [DZNep, 3-Deazaneplanocin A], which “increase in TM (stabilizing the unfolding by)” value ([2]; D86G, concentration not given) is on record?
Answer: 11.18 °C

Question: And the ΔTm at 10 µM ([2]; read-out: ΔTM)?
Answer: 13.5 °C

Question: For NC(=O)c1ccc[n+]([C@@H]2O[C@H](COP(=O)([O-])OP(=O)(O)OC[C@H]3O[C@@H](n4cnc5c(N)ncnc54)[C@H](O)[C@@H]3O)[C@@H](O)[C@H]2O)c1 [NAD^+, nicotinamide adenine dinucleotide], which ΔTm at 100 µM ([3]; AHCY wild-type, 100 µM, read-out: stabilized the unfolding transition by (shift of TM)) is on record?
Answer: 2.34 °C

Question: And the “TM = Temperature at the midpoint of protein unfolding transition” value ([3]; 5 µM)?
Answer: 52,24

Question: And the “TM = Temperature at the midpoint of protein unfolding transition” value ([3]; 11 µM)?
Answer: 53,99

Question: What about the “TM = Temperature at the midpoint of protein unfolding transition” value ([3]; 100 µM) of the same compound?
Answer: 54,32

Question: And the “TM = Temperature at the midpoint of protein unfolding transition” value ([4]; 5 µM)?
Answer: 50,62

Question: And the “TM = Temperature at the midpoint of protein unfolding transition” value ([4]; 11 µM)?
Answer: 52,36

Question: And the “TM = Temperature at the midpoint of protein unfolding transition” value ([4]; 100 µM)?
Answer: 52,17

Question: What about the “TM = Temperature at the midpoint of protein unfolding transition” value ([5]; 5 µM) of the same compound?
Answer: 51,31

Question: What about the “TM = Temperature at the midpoint of protein unfolding transition” value ([5]; 11 µM) of the same compound?
Answer: 52,45

Question: And the “TM = Temperature at the midpoint of protein unfolding transition” value ([5]; 100 µM)?
Answer: 52,48

Question: And the “TM = Temperature at the midpoint of protein unfolding transition” value ([6]; 5 µM)?
Answer: 51,48

Question: And the “TM = Temperature at the midpoint of protein unfolding transition” value ([6]; 11 µM)?
Answer: 52,55

Question: What about the “TM = Temperature at the midpoint of protein unfolding transition” value ([6]; 100 µM) of the same compound?
Answer: 52,75

Question: What about the “TM = Temperature at the midpoint of protein unfolding transition” value ([2]; D86G, 5 µM) of the same compound?
Answer: 51,88

Question: And the “TM = Temperature at the midpoint of protein unfolding transition” value ([2]; D86G, 11 µM)?
Answer: 53,51

Question: And the “TM = Temperature at the midpoint of protein unfolding transition” value ([2]; D86G, 100 µM)?
Answer: 54,02

Question: And the ΔTm at 100 µM [2]?
Answer: 4.47 °C

Question: What about the “TM = Temperature at the midpoint of protein unfolding transition” value ([1]; 5 µM) of the same compound?
Answer: 51,97

Question: What about the “TM = Temperature at the midpoint of protein unfolding transition” value ([1]; 11 µM) of the same compound?
Answer: 53,52

Question: What about the “TM = Temperature at the midpoint of protein unfolding transition” value ([1]; 100 µM) of the same compound?
Answer: 54,59

Question: And the “stabilizing effect on thermal stability (in words)” value [7]?
Answer: very good effects

Question: What does the source list for NC(=O)c1ccc[n+]([C@@H]2O[C@H](COP(=O)([O-])OP(=O)(O)OC[C@H]3O[C@@H](n4cnc5c4ncn4ccnc54)[C@H](O)[C@@H]3O)[C@@H](O)[C@H]2O)c1 [E-NAD^+, nicotinamide 1,N^6-ethenoadenine dinucleotide]?
Answer: ΔTM (increase in TM) ([6]; concentration not given): 4.36 °C; stabilizing effect on thermal stability (in words) [7]: considerable stabilization

Question: Which results are given for NC(=S)c1ccc[n+]([C@@H]2O[C@H](COP(=O)([O-])OP(=O)(O)OC[C@H]3O[C@@H](n4cnc5c(N)ncnc54)[C@H](O)[C@@H]3O)[C@@H](O)[C@H]2O)c1 [S-NAD^+, thionicotinamide adenine dinucleotide]?
Answer: ΔTm at 100 µM ([2]; D86G, 100 µM): 6.7 °C; stabilizing effect on thermal stability (in words) [7]: improved resistance against thermal stress

Question: Which “stabilizing effect on thermal stability (in words)” value [7] does the source give for NC(=O)c1ncn([C@@H]2O[C@H](CO)[C@@H](O)[C@H]2O)n1 [ribavirin, 1-[(2R,3R,4S,5R)-3,4-dihydroxy-5-(hydroxymethyl)oxolan-2-yl]-1H-1,2,4-triazole-3-carboxamide] here?
Answer: good stabilizing effect
